We go through one compound from patent US11084976B2, “Method and process of use of binary compositions for acidizing subterranean formations” (Halliburton Energy Services, Inc., priority 2018, dated 2021).

A short description of data set [1]: PMIDA added to base solubility test. It counts as physicochemical. The note with it: base added to PMIDA in solid form or high concentrated slurry. The method, then: During the testing, however, it was observed that adding the base to the PMIDA in its solid form, or in a high concentrated slurry, was unsuccessful.
The following procedure was followed to generate several samples. First, a quantity of a known base in water was prepared. Next, PMIDA was added to the solution at a rate slow enough to ensure that no boiling of the fluid occurred. As discussed above, it is believed that the addition of the PMIDA to the base may result in an exothermic reaction that may aid in additional solubilizing of PMIDA due to the increase in the fluid temperature. After complete addition and thorough mixing, the fluid was cooled, and the volume, weight, and pH were measured. Finally, the concentration and density of the samples were determined.

A short description of data set [2]: Solubility of PMIDA in water and HCl (saturation concentrations). The note with it: for solubility thermodynamic: water, thermodynamic from solid, H2O. It counts as physicochemical. An excerpt: In certain embodiments, the organic compound comprising a phosphonoalkyl moiety is at least partially solubilized in the organic or mineral acid. As used herein, the term “at least partially solubilized,” and grammatical variants thereof, with reference to the organic compound comprising a phosphonoalkyl moiety in the organic or mineral acid refers to dissolution of at least about 2% weight per volume (w/v) of the organic compound comprising a phosphonoalkyl moiety in the organic or mineral acid at room temperature. As used herein, the term “room temperature” refers to about 15° C. to about 25° C. The remaining excess organic compound comprising a phosphonoalkyl moiety may be suspended in the organic or mineral acid while it is undergoing dynamic fluid flow at room temperature. As temperatures increase (e.g., as the treatment fluid is introduced into a subterranean formation and encounters downhole temperatures), the solubility of the organic compound comprising a phosphonoalkyl moiety in the organic or mineral acid may increase. Indeed, the solubility of the organic compound comprising a phosphonoalkyl moiety increases as a function of acid concentration, and temperature.

Converted amounts (≈) assume the structure as drawn.

For the compound `O=C(O)CN(CC(=O)O)CP(=O)(O)O` [PMIDA, N-(phosphonomethyl)iminodiacetic acid], the “Solubility in the base mixture” value in data set [1] is “substantially insoluble”. Further, the “Solubility Average” value in data set [2] (Atm., 7.5% HCl, 200° F.) is given as 10.00 w/v %. In addition, the thermodynamic solubility in data set [2] (37.8 °C, 200 psi, 100° F.) was 18.3 mg/mL (≈ 80.6 mM); in data set [2] (37.8 °C, Atm., 100° F.), 22.6 mg/mL (≈ 99.5 mM); in data set [2] (65.6 °C, 200 psi, 150° F.) it was 28.7 mg/mL (≈ 126 mM); in data set [2] (65.6 °C, Atm., 150° F.) it was 31.9 mg/mL (≈ 140 mM); in data set [2] (93.3 °C, 200 psi, 200° F.), 51.1 mg/mL (≈ 225 mM); in data set [2] (93.3 °C, Atm., 200° F.), 47.9 mg/mL (≈ 211 mM).
